Here are results for 2 compounds from patent US20190247350A1, “COMPOSITION FOR IMPROVING DECREASED ABSORPTION IN DIGESTIVE TRACT, AND COMPOSITION FOR PROMOTING ABSORPTION IN DIGESTIVE TRACT” (AJINOMOTO CO., INC., priority 2016, published 2019).

Assay type in all cases: in vivo, mouse
In assay [1] the test system is ABC protein G5 gene (Abcg5). The assay is described as follows: Expression of ABC protein G5 gene in small intestine after running exercise (GeneChip array). Particulars: feed with 2 wt % for 7 days, 4 hr running, small intestine 1 hr after running; compared to Ex group; P<0.05. The text has this:
(§1) 7-Week-old male CD2F1 mice (CHARLES RIVER LABORATORIES JAPAN, INC.) were divided into 4 groups (“Sed”, “Ex”, “Ex+Gln” and “Ex+Cys2”) (n=6/group), Sed group and Ex group were made to ingest a standard purified feed (AIN-93G composition), Ex+Gln group was made to ingest a standard purified feed (AIN-93G composition) added with glutamine (2 wt %) by replacing casein, and Ex+Cys2 group was made to ingest a standard purified feed (AIN-93G composition) added with cystine (2 wt %) by replacing casein, each for 7 days. Thereafter, each group was fasted overnight, and Ex group, Ex+Gln group and Ex+Cys2 group were made to run in a running wheel for 4 hr (speed=10.5 m/min). Sed group was continuously fasted during the running exercise of Ex group, Ex+Gln group and Ex+Cys2 group. At 1 hr after completion of running, the small intestine was collected from the mice of each group, and total RNA was extracted using Rneasy Lipid Tissue Mini Kit (QIAGEN). GeneChip Mouse Genome 430 2.0 (3′IVT) array (Affymetrix) was used for the measurement of comprehensive gene expression. Difference in the gene expression level of each group was tested by Dunnett's test following one-way analysis of variance. […]

Assay [2] relates to small intestine (everted intestine sample). The assay is described as follows: Glucose absorption capacity of everted intestine sample after running exercise (Experimental Example 2). As to conditions: feed with cystine 2 wt % for 7 days, 4 hr running. An excerpt:
7-Week-old male CD2F1 mice (CHARLES RIVER LABORATORIES JAPAN, INC.) were divided into 3 groups (“Sed”, “Ex” and “Ex+Cys2”) (n=12/group), Sed group and Ex group were made to ingest a standard purified feed (AIN-93G composition), and Ex+Cys2 group was made to ingest a standard purified feed (AIN-93G composition) added with cystine (2 wt %) by replacing casein, each for 7 days. Thereafter, each group was fasted overnight, and Ex group and Ex+Cys2 group were made to run in a running wheel for 4 hr (speed=10.5 m/min). Sed group was continuously fasted during the running exercise of Ex group and Ex+Cys2 group. […]
Ringer buffer containing 10 mM glucose was added to the serous membrane side and the villus side of the produced everted intestine sample of each group, and the sample was incubated under oxygen supply at 37° C. for 90 min. Thereafter, the everted intestine sample was taken out, and the glucose concentration of the Ringer buffer on the serous membrane side and the villus side was measured using a glucose measurement kit (“glucose CII Test Wako” (Wako Pure Chemical Industries, Ltd.)). The glucose absorption capacity of each group was calculated from the difference in the glucose concentration between the villus side and the serous membrane side. […]

The subject of assay [3] is peptide transporter gene (Slc15a1). Kind of assay: Expression of peptide transporter gene in small intestine after running exercise (GeneChip array). Particulars: feed with 2 wt % for 7 days, 4 hr running, small intestine 1 hr after running; compared to Ex group; P<0.01.
Description: as §1

For assay [4], the system named is sodium-dependent multivitamin transporter gene (Slc5a6). The assay is described as follows: Expression of sodium-dependent multivitamin transporter gene in small intestine after running exercise (GeneChip array). As to conditions: feed with 2 wt % for 7 days, 4 hr running, small intestine 1 hr after running; compared to Ex group; P<0.05.
Description: as §1

In another assay the test system is aquaporin gene (Aqa3). The assay is described as follows: Expression of aquaporin gene in small intestine after running exercise (GeneChip array). Particulars: feed with 2 wt % for 7 days, 4 hr running, small intestine 1 hr after running; compared to Ex group; P<0.01.
Description: as §1

Assay [5] has as its system small intestine (everted intestine sample). Kind of assay: Glucose absorption capacity of everted intestine sample without exercise (Experimental Example 3). Particulars: non-exercise, feed with cystine 2 wt % for 7 days, 10 mM glucose, 37° C., 90 min, Sed+Cys2 compared to Sed group. The text has this: 7-Week-old male CD2F1 mice (CHARLES RIVER LABORATORIES JAPAN, INC.) were divided into 2 groups (“Sed” and “Sed+Cys2”) (n=6/group), Sed group was made to ingest a standard purified feed (AIN-93G composition), and Sed+Cys2 group was made to ingest a standard purified feed (AIN-93G composition) added with cystine (2 wt %) by replacing casein, each for 7 days. Then, each group was fasted overnight, and the small intestine was collected, everted intestine samples were produced according to the method of KirK et al. (ADVANCES In Physiology Education 37 (4) 415-426 (2013), which is incorporated herein by reference in its entirety). […]
Ringer buffer containing 10 mM glucose was added to the serous membrane side and the villus side of the everted intestine sample of each group, and the sample was incubated under oxygen supply at 37° C. for 90 min. Thereafter, the everted intestine sample was taken out, and the glucose concentration of the Ringer buffer on the serous membrane side and the villus side was measured using a glucose measurement kit (“glucose CII Test Wako” (Wako Pure Chemical Industries, Ltd.)). The glucose absorption capacity of each group was calculated from the difference in the glucose concentration between the villus side and the serous membrane side. The difference in the glucose absorption capacity of each group was determined by a comparison t-test between two groups. […]

In another assay the test system is biotinidase gene (Btd). Kind of assay: Expression of biotinidase gene in small intestine after running exercise (GeneChip array). Particulars: feed with 2 wt % for 7 days, 4 hr running, small intestine 1 hr after running; compared to Ex group; P<0.01.
Description: as §1

The test system of assay [6] is sodium-dependent glucose transporter gene (SGLT1). Kind of assay: Expression of sodium-dependent glucose transporter gene in small intestine after running exercise (real-time PCR). Particulars: feed with cystine 2 wt % for 7 days, 4 hr running; compared to Ex group; tendency toward significance at P<0.1. The text has this: 7-Week-old male CD2F1 mice (CHARLES RIVER LABORATORIES JAPAN, INC.) were divided into 3 groups (“Sed”, “Ex” and “Ex+Cys2”) (n=12/group), Sed group and Ex group were made to ingest a standard purified feed (AIN-93G composition), and Ex+Cys2 group was made to ingest a standard purified feed (AIN-93G composition) added with cystine (2 wt %) by replacing casein, each for 7 days. Thereafter, each group was fasted overnight, and Ex group and Ex+Cys2 group were made to run in a running wheel for 4 hr (speed=10.5 m/min). Sed group was continuously fasted during the running exercise of Ex group and Ex+Cys2 group. Immediately after completion of running, the small intestine was collected, everted intestine samples were produced according to the method of KirK et al. (ADVANCES In Physiology Education 37 (4) 415-426 (2013), which is incorporated herein by reference in its entirety). As the everted intestine sample, a part of 8 cm below the point of 4 cm from the pyloric part was used.
Furthermore, using Rneasy Lipid Tissue Mini Kit (QIAGEN), total RNA was extracted from a part of the small intestine used for producing the everted intestine sample. QuantStudio 12K Flex Real-Time PCR System (Thermo Fisher Scientific) was used for the measurement of the expression of sodium-dependent glucose transporter gene (SGLT1). […]

The test system of assay [7] is scavenge receptor class B gene (Scarb1). The assay is described as follows: Expression of scavenge receptor class B gene in small intestine after running exercise (GeneChip array). Particulars: feed with 2 wt % for 7 days, 4 hr running, small intestine 1 hr after running; compared to Ex group; tendency toward significance at P<0.1.
Description: as §1

Assay [8] relates to folic acid transporter gene (Slc46a1). Kind of assay: Expression of folic acid transporter gene in small intestine after running exercise (GeneChip array). As to conditions: feed with 2 wt % for 7 days, 4 hr running, small intestine 1 hr after running; compared to Ex group; P<0.05.
Description: as §1

The test system of assay [9] is ABC protein G8 gene (Abcg8). Kind of assay: Expression of ABC protein G8 gene in small intestine after running exercise (GeneChip array). Particulars: feed with 2 wt % for 7 days, 4 hr running, small intestine 1 hr after running; compared to Ex group; P<0.05.
Description: as §1

The subject of assay [10] is amino acid transporter gene (Slc7a7). Kind of assay: Expression of amino acid transporter gene in small intestine after running exercise (GeneChip array). Particulars: feed with 2 wt % for 7 days, 4 hr running, small intestine 1 hr after running; compared to Ex group; tendency toward significance at P=0.1.
Description: as §1

`NC(CSSCC(N)C(=O)O)C(=O)O` (stereo not drawn) [cystine, 3,3′-dithiobis(2-aminopropanoic acid)]: the “expression level of ABC protein G5 gene (mRNA level)” value in [1] is listed as “increased”. Moreover, the “glucose absorption capacity (difference in glucose concentration between villus side and serous membrane side)” value is recorded as “significantly (P<0.05) improved” in assay [2] (10 mM glucose, 37° C., 90 min, compared to Ex group); “higher” in assay [2] (Ex+Cys2 compared to Sed group (no exercise)); “improved” in assay [5]. Also, in [3], the “expression level of peptide transporter gene (mRNA level)” value was “increased”. In [4], the “expression level of sodium-dependent multivitamin transporter gene (mRNA level)” value is on record as “increased”. Besides, in the assay on aquaporin gene (Aqa3), the “expression level of aquaporin gene (mRNA level)” value is “increased”. Moreover, the “expression level of biotinidase gene (mRNA level)” value in the assay with biotinidase gene (Btd) is “increased”. Besides, the “expression of SGLT1 (mRNA amount)” value in assay [6] was “tended to increase”.

Turning to `NC(=O)CCC(N)C(=O)O` (stereo not drawn) [glutamine, 2-amino-4-carbamoylbutanoic acid], the “expression level of scavenge receptor class B gene (mRNA level)” value in assay [7] was “increased”. Also, the “expression level of folic acid transporter gene (mRNA level)” value in assay [8] was “increased”. Further, the “expression level of aquaporin gene (mRNA level)” value in the assay on aquaporin gene (Aqa3) is “increased”. For the same compound, the “expression level of biotinidase gene (mRNA level)” value in the assay on biotinidase gene (Btd) was “increased”. In addition, in assay [9], the “expression level of ABC protein G8 gene (mRNA level)” value was “increased”. Also, in [10], the “expression level of amino acid transporter gene (mRNA level)” value was “increased”.
